{"source": "paper PMC6952414", "about": "(Nature Communications, 2020)", "key": {"MDCK cells [1]": {"system": "MDCK cells", "conditions": "5 mM for 16 h"}, "IAV strain PR8 [2]": {"system": "IAV strain PR8"}, "IAV strain PR8 [3]": {"system": "IAV strain PR8", "type": "cell-based, IAV H1N1 strain A/Puerto Rico/8/1934 (PR8)"}, "IAV strain PR8 [4]": {"system": "IAV strain PR8", "parameters": "species or system BALB/c mice", "conditions": "mouse, in vivo"}, "IAV strain PR8 [5]": {"system": "IAV strain PR8", "assay": "microbe, parasite or virus in culture", "conditions": "Influenza A virus, PR8, MDCK, read-out: EC50 (μM), IAV cytopathicity"}, "IAV strain PR8 [6]": {"system": "IAV strain PR8", "type": "cell-based, IAV H1N1 strain A/Puerto Rico/8/1934 (PR8)", "remark": "listed apart in the source"}, "virus NP mRNA": {"system": "virus NP mRNA", "type": "cell-based, IAV H1N1 strain A/Puerto Rico/8/1934 (PR8)"}, "IAV strain PR8 [7]": {"system": "IAV strain PR8", "type": "cell-based, IAV H1N1 strain A/Puerto Rico/8/1934 (PR8)", "remark": "listed apart in the source"}, "IAV strain PR8 [8]": {"system": "IAV strain PR8", "type": "cell-based, IAV H1N1 strain A/Puerto Rico/8/1934 (PR8)", "remark": "listed apart in the source"}, "IAV strain PR8 [9]": {"system": "IAV strain PR8", "remark": "listed apart in the source"}, "HA [10]": {"system": "HA", "type": "biochemical, IAV H1N1 strain A/Puerto Rico/8/1934 (PR8)"}, "IAV strain PR8 [11]": {"system": "IAV strain PR8", "type": "cell-based, IAV H1N1 strain A/Puerto Rico/8/1934 (PR8)", "remark": "listed apart in the source"}, "[12]": {"system": "recombinant HA derived from H5N1 A/chicken/Yamaguchi/7/2004 strain", "type": "binding, Influenza A virus H5N1"}, "[13]": {"system": "IAV particles (strain PR8)", "type": "biochemical, IAV H1N1 strain A/Puerto Rico/8/1934 (PR8)"}, "[14]": {"system": "recombinant HA / α2-6sialyllactose-PAA", "type": "binding, IAV H1N1 strain A/Puerto Rico/8/1934 (PR8)"}, "HA1/HA2": {"system": "HA1/HA2", "type": "binding, IAV H1N1 strain A/Puerto Rico/8/1934 (PR8)"}, "LC3-II": {"system": "LC3-II", "type": "cell-based, canine"}, "HA [15]": {"system": "HA", "type": "cell-based, IAV H1N1 strain A/Puerto Rico/8/1934 (PR8)"}, "IAV strain PR8 [16]": {"system": "IAV strain PR8", "type": "cell-based, IAV H1N1 strain A/Puerto Rico/8/1934 (PR8)", "remark": "listed apart in the source"}, "PR8-HA1/HA2": {"system": "PR8-HA1/HA2", "type": "binding, IAV H1N1 strain A/Puerto Rico/8/1934 (PR8)"}, "IAV strain PR8 [17]": {"system": "IAV strain PR8", "type": "cell-based, IAV H1N1 strain A/Puerto Rico/8/1934 (PR8)", "remark": "listed apart in the source"}, "IAV strain PR8 [18]": {"system": "IAV strain PR8", "type": "cell-based, IAV H1N1 strain A/Puerto Rico/8/1934 (PR8)", "remark": "listed apart in the source"}, "PR8-HA0": {"system": "PR8-HA0", "type": "binding, IAV H1N1 strain A/Puerto Rico/8/1934 (PR8)"}, "[19]": {"target": "immobilized recombinant HA (Influenza A virus, UniProt P03452)", "sequence (P03452 18-565 limits assumed)": "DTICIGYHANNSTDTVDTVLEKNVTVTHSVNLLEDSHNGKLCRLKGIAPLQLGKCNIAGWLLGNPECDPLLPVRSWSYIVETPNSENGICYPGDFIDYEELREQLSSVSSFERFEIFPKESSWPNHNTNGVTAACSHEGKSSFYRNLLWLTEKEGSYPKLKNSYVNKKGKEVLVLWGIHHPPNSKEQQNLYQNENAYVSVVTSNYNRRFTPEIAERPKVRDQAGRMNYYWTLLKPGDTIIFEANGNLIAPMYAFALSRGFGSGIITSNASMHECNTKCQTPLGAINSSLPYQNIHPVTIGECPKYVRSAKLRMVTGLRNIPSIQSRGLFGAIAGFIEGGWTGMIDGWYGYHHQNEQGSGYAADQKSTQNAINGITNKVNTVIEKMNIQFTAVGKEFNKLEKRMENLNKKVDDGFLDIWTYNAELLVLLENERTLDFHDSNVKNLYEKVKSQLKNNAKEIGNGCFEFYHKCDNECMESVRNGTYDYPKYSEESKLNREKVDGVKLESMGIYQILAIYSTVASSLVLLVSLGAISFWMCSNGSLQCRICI", "type": "binding, IAV H1N1 strain A/Puerto Rico/8/1934 (PR8)"}, "IAV strain PR8 [20]": {"system": "IAV strain PR8", "type": "cell-based, IAV H1N1 strain A/Puerto Rico/8/1934 (PR8)", "remark": "listed apart in the source"}, "cell surface HA": {"system": "cell surface HA", "type": "cell-based, IAV H1N1 strain A/Puerto Rico/8/1934 (PR8)"}, "MDCK cells [21]": {"system": "MDCK cells"}, "IAV strain PR8 [22]": {"system": "IAV strain PR8", "type": "cell-based, IAV H1N1 strain A/Puerto Rico/8/1934 (PR8)", "remark": "listed apart in the source"}}, "note": "Where “and” joins values, the source holds several entries; their conditions need not be identical. Equal values may be shown once. Read-outs that look alike come from different tables or passages of the source. Positions of bridges follow the written chain, without caps; N, C: chain ends. Non-standard residues stand in square brackets, D forms with d. Chains are numbered I, II in the order given. No end group written: not given here. Ahx = NCCCCCC(=O)O"}
{"compound": "3-MA", "values": [{"measurement": "cell viability of uninfected MDCK cells (in words)", "setting": "MDCK cells [1]", "value": "did not affect the cell viability"}]}
{"compound": "CSCC[C@H](N)C(=O)N[C@@H](C)C(=O)N[C@@H](C)C(=O)NCCCCCC(=O)NCCCC[C@H](NC(=O)CCCCCNC(=O)[C@H](C)NC(=O)[C@H](C)NC(=O)[C@@H](N)CCSC)C(=O)NCCCC[C@H](NC(=O)[C@H](CCCCNC(=O)CCCCCNC(=O)[C@H](C)NC(=O)[C@H](C)NC(=O)[C@@H](N)CCSC)NC(=O)CCCCCNC(=O)[C@H](C)NC(=O)[C@H](C)NC(=O)[C@@H](N)CCSC)C(=O)O", "note": "[MA-tet]", "values": [{"measurement": "inhibition of IAV cytopathicity (in words)", "setting": "IAV strain PR8 [2]", "value": "did not inhibit the cytopathicity"}]}
{"compound": "C[C@@H]1COCCN1c1cc(=O)n2c(n1)N(Cc1cncc(Cl)c1)[C@H](C(F)(F)F)CC2", "note": "[SAR405]", "values": [{"measurement": "effect on the dose-dependent anti-viral activity of PVF-tet (in words)", "setting": "IAV strain PR8 [3]", "value": "suppressed the dose-dependent anti-viral activity of PVF-tet"}]}
{"compound": "CC(=O)N[C@H]1[C@H]([C@H](O)[C@H](O)CO)OC(C(=O)O)=C[C@@H]1N=C(N)N", "note": "[Zanamivir, zanamivir]", "values": [{"measurement": "body weight loss (in words)", "setting": "IAV strain PR8 [4]", "value": "attenuated the weight loss"}, {"measurement": "mice rescued from mortality", "setting": "IAV strain PR8 [4]", "value": 100, "unit": "%"}, {"measurement": "EC50", "setting": "IAV strain PR8 [5]", "value": 0.2, "unit": "µM"}]}
{"compound": "CO/C1=C\\C(C)=C\\[C@@H](C)[C@@H](O)[C@@H](C)C/C(C)=C/C=C/[C@H](OC)[C@@H]([C@@H](C)[C@@H](O)[C@H](C)[C@@]2(O)C[C@@H](O)[C@H](C)[C@@H](C(C)C)O2)OC1=O", "note": "[bafilomycin A1]", "values": [{"measurement": "fusion process monitored by fluorescently labeled virus (in words)", "setting": "IAV strain PR8 [6]", "value": "efficiently inhibited both events"}, {"measurement": "NP mRNA synthesis (in words)", "setting": "virus NP mRNA", "value": "efficiently inhibited both events"}, {"measurement": "Relative mRNA expression (fold increase)", "setting": "virus NP mRNA", "value": "0.134 fold increase and 0.131 fold increase and 0.156 fold increase and 0.244 fold increase and 0.237 fold increase and 0.138 fold increase and 0.155 fold increase"}, {"measurement": "NP-positive cells (%)", "setting": "IAV strain PR8 [7]", "value": "5.3% and 2.2% and 2.8% and 3.8%"}, {"measurement": "virus entry into target cells, NP-positive cells (in words)", "setting": "IAV strain PR8 [7]", "value": "completely inhibited virus entry into cells"}, {"measurement": "time of administration after initial IAV infection at which cytopathicity is still inhibited", "setting": "IAV strain PR8 [8]", "value": "< 5", "unit": "h"}]}
{"compound": "I: MARRPVNHFA[Ahx]KK-NH2 / II: MARRPVNHFA[Ahx]K / III: MARRPVNHFA[Ahx] / IV: MARRPVNHFA[Ahx] (amide I:12-IV:C, I:13-II:C, II:12-III:C) [PVF-tet]", "values": [{"measurement": "inhibition of IAV cytopathicity in Caco-2 cells (in words)", "setting": "IAV strain PR8 [9]", "value": "equally inhibited cytopathicity induced by both low and high MOI infection"}, {"measurement": "formation of highly clustered HA (in words)", "setting": "HA [10]", "value": "induced the formation of highly clustered HA"}, {"measurement": "fusion process monitored by fluorescently labeled virus (in words)", "setting": "IAV strain PR8 [6]", "value": "did not affect the fusion process"}, {"measurement": "anti-viral activity in PIK3C3-knockout clones (in words)", "setting": "IAV strain PR8 [11]", "value": "significantly suppressed in the clones"}, {"measurement": "binding to recombinant H5N1 HA (in words)", "setting": "[12]", "value": "bound"}, {"measurement": "NP mRNA synthesis (in words)", "setting": "virus NP mRNA", "value": "did not affect"}, {"measurement": "inhibition of IAV-induced hemagglutination (in words)", "setting": "[13]", "value": "did not inhibit IAV-induced hemagglutination"}, {"measurement": "inhibition of the interaction between HA and α2,6-sialyllactose polymer (in words)", "setting": "[14]", "value": "also efficiently inhibited the binding of HA to α2-6 sialyllactose-polymer"}, {"measurement": "EC50", "setting": "IAV strain PR8 [2]; 24 h", "value": 1.4, "unit": "µM"}, {"measurement": "effect of proteolytic cleavage of recombinant HA into HA1/HA2 on binding (in words)", "setting": "HA1/HA2", "value": "reduced the binding of PVF-tet to HA"}, {"measurement": "formation of LC3-II (in words)", "setting": "LC3-II", "value": "further enhanced the formation of LC3-II"}, {"measurement": "amount of newly synthesized HA in infected cells (in words)", "setting": "HA [15]", "value": "accumulated in a time-dependent manner"}, {"measurement": "anti-viral activity in ULK1-knockout clones (in words)", "setting": "IAV strain PR8 [16]", "value": "significantly suppressed in the clones"}, {"measurement": "binding to infectious IAV particles with HA1/HA2 (in words)", "setting": "PR8-HA1/HA2", "value": "did not bind to infectious IAV particles with HA1/HA2"}, {"measurement": "fold increase of virus titer over the initial virus titer", "setting": "IAV strain PR8 [17]", "value": "about 50 fold"}, {"measurement": "inhibition of IAV propagation (in words)", "setting": "IAV strain PR8 [17]", "value": "inhibited IAV propagation to a greater degree than fetuin"}, {"measurement": "Cell viabilitiy(%)", "setting": "IAV strain PR8 [18]", "value": "136.2% and 97.5% and 109.1% and 71.8% and 88.5% and 71.7%"}, {"measurement": "anti-IAV activity in the ABCA3-knockout clone (in words)", "setting": "IAV strain PR8 [18]", "value": "retained its anti-IAV activity"}, {"measurement": "binding to non-infectious IAV particles with HA0 (in words)", "setting": "PR8-HA0", "value": "did bind with remarkable efficacy to non-infectious IAV particles with HA0"}, {"measurement": "NP-positive cells (%)", "setting": "IAV strain PR8 [7]", "value": "51.6% and 50.5% and 44.6% and 50.0%"}, {"measurement": "virus entry into target cells, NP-positive cells (in words)", "setting": "IAV strain PR8 [7]", "value": "did not inhibit virus entry into target cells"}, {"measurement": "time of administration after initial IAV infection at which cytopathicity is still inhibited", "setting": "IAV strain PR8 [8]", "value": "up to 9 h"}, {"measurement": "Rmax", "setting": "[19]", "value": 1004, "unit": "RU"}, {"measurement": "binding to HA (in words)", "setting": "[19]", "value": "bound to HA with high affinity"}, {"measurement": "cell viability", "setting": "IAV strain PR8 [20]", "value": "103 ± 9% and 85 ± 9%"}, {"measurement": "inhibition of cytopathicity when treated from 2 h post-infection for limited periods (in words)", "setting": "IAV strain PR8 [20]", "value": "still efficiently inhibited the cytotoxicity"}, {"measurement": "amount of HA on the plasma membrane (in words)", "setting": "cell surface HA", "value": "marked reduction of the amount of HA that was present on the plasma membrane"}, {"measurement": "effect of FBS on incorporation into cells (in words)", "setting": "MDCK cells [21]", "value": "enhanced by the presence of fetal bovine serum (FBS)"}, {"measurement": "incorporation into MDCK cells (in words)", "setting": "MDCK cells [21]", "value": "can be incorporated into MDCK cells at 37 °C"}]}
{"compound": "RRPVNHD [PVD-tet]", "values": [{"measurement": "inhibition of IAV cytopathicity (in words)", "setting": "IAV strain PR8 [2]", "value": "failed to inhibit IAV cytopathicity"}, {"measurement": "incorporation into MDCK cells (in words)", "setting": "MDCK cells [21]", "value": "less cell-penetrating"}]}
{"compound": "RRRVNHH [RVH-tet]", "values": [{"measurement": "inhibition of IAV cytopathicity (in words)", "setting": "IAV strain PR8 [2]", "value": "efficiently inhibited the cytopathicity in a dose-dependent manner"}]}
{"compound": "asialofetuin [reference compound]", "values": [{"measurement": "binding to infectious IAV particles with HA1/HA2 (in words)", "setting": "PR8-HA1/HA2", "value": "exhibited no binding"}, {"measurement": "binding to non-infectious IAV particles with HA0 (in words)", "setting": "PR8-HA0", "value": "exhibited no binding"}]}
{"compound": "fetuin", "values": [{"measurement": "inhibition of IAV cytopathicity at low MOI (in words)", "setting": "IAV strain PR8 [22]", "value": "had the greatest inhibitory effect"}, {"measurement": "inhibition of IAV-induced hemagglutination (in words)", "setting": "[13]", "value": "efficiently inhibited the activity"}, {"measurement": "inhibition of IAV cytopathicity (in words)", "setting": "IAV strain PR8 [2]", "value": "showed no inhibitory effect at all"}, {"measurement": "effect of proteolytic cleavage of recombinant HA into HA1/HA2 on binding (in words)", "setting": "HA1/HA2", "value": "also reduced by the cleavage of HA"}, {"measurement": "Virus propagation (fold increase)", "setting": "IAV strain PR8 [17]", "value": "350.0 fold increase and 466.7 fold increase and 483.3 fold increase"}, {"measurement": "binding to non-infectious IAV particles with HA0 (in words)", "setting": "PR8-HA0", "value": "exhibited much more binding"}]}
